The text below walks through data of PubChem BioAssay AID434967 (Sanford-Burnham Center for Chemical Genomics, 2010).

The test in a line: HIV fusion inhibitor analogs, peptide binding, SAR follow-up, biochemical, fluorescence quenching (AID 434967). The note with it: cell-free peptide binding, 30 min.

As a reminder, the IC50 is the point on the concentration scale where inhibition reaches its midpoint. Take `Cc1c2c(=O)n(-c3nc4ccccc4s3)nc-2cc(O)n1Cc1ccccc1`: the IC50 is 10.1 µM.
Turning to `N#C/C(=C\c1ccc(O)c([N+](=O)[O-])c1)c1nc2ccccc2s1`, the IC50 was 6.25 µM.
The result for `COc1cc(C=NNc2ccc(Cl)c(C(=O)O)c2)ccc1OC(=O)c1ccccc1F` reads 25.9 µM.
To `CCOC(=O)c1sc(N2C(=O)C(O)=C(C(=O)c3ccc(C)o3)C2c2cccc([N+](=O)[O-])c2)nc1C` (stereo not given) belongs 10.5 µM; to `CC(C)(C)c1cc(-c2csc(Nc3ccccc3)[n+]2Cc2ccc(C(=O)O)cc2)cc(C(C)(C)C)c1O`, 27.3 µM.
Take `COc1cc(C=NNc2ccc(Cl)c(C(=O)O)c2)ccc1OC(=O)c1ccc(F)cc1`: the IC50 was 8.03 µM.
To `O=C(O)c1cc(NN=Cc2ccc(-c3ccccc3)cc2)ccc1Cl` belongs 14.8 µM; to `O=C(O)c1ccccc1N=Nc1c(O)[nH]c2ccc([N+](=O)[O-])cc12`, 13.3 µM.
To `COc1ccc(C(=O)Oc2ccc(C=NNc3ccc(Cl)c(C(=O)O)c3)cc2OC)cc1` belongs 5.16 µM; to `O=C(N/N=C/c1c(O)n(C2CCCCC2)c(=S)[nH]c1=O)c1ccccc1O`, 9 µM.
